# Data reported in patent US11116767B2, “3,5-disubstituted pyrazoles useful as checkpoint kinase 1 (Chk1) inhibitors, and their preparations and applications” (PHARMAENGINE, INC., priority 2016, dated 2021).
# How the values were obtained:
# [1] = molecular target: T1, Chk2 (Homo sapiens, UniProt O96017); test: biochemical; conditions: ADP-Glo; read-out: Chk2 in vitro enzyme activity (grade)
# T1 construct: purchased Carna 02-162
# [2] = test system: HT-29; test: Cancer cell growth inhibition assay (CellTiter-Glo), HT-29; format: cell-based, Human; conditions: Homo sapiens, HT-29; 72 hours, cellular ATP content; read-out: HT-29 anti cell proliferation activity (grade)
# Method: (§1) Human cancer cell lines were purchased from American Type Culture Collection (Manassas, Va.). The trypsinized cells were diluted to required volume at densities of 44,000 cells/ml. 90 ul cell slurry was dispensed per well in 96-well flat-bottomed plates with the recommended culture medium. The cells were incubated for 24 hours at 37° C. in 5% CO2 under humidified condition. The cells were then incubated with compounds at various concentrations for 72 hours in culture medium supplemented with 0.5% (v/v) FBS. Growth inhibition was assessed by assay of cellular ATP content using CellTiter-Glo reagent to each well. Luminesce was read on Envision. The inhibition rate (%)=(Max signal compound signal)/(Max signal Min signal)×100.
# [3] = test system: MDA-MB-231; test: Cancer cell growth inhibition assay (CellTiter-Glo), MDA-MB-231; format: cell-based, Human; conditions: Homo sapiens, MDA-MB-231; 72 hours, cellular ATP content; read-out: MDA-MB-231 anti cell proliferation activity (grade)
# Method: as §1
# [4] = test system: ChK1 phosphorylation (pChK1 S296) in HT-29 colon cancer cells; test: Western blot analysis of ChK1 phosphorylation in HT-29 cells with SN-38; format: cell-based, Human; conditions: HT-29 cells pre-incubated with SN-38 (50 nM) 24 hours, then ChK1 inhibitor 3 hours
# [5] = Pharmacokinetics study in rats, intravenous; format: in vivo, SD rats; conditions: rat, in vivo, iv
# Method: Compounds were formulated in 30% SEB-β-CD (Zhiyuan Bio-technology) with 1 molar equivalents of HCl (pH adjusted to 3-5). Male SD rats (280-350 g) were purchased from Medical Laboratory Animal Center of Guangdong. Three rats were used for each PK study. […] At various time points after compound administration, approximately 0.2˜0.3 mL of blood was collected by cutting the end of tail into tubes containing K2-EDTA. The plasma was separated via centrifugation and stored at −80° C. A PE Sciex API-3000 LC-MS/MS system (Applied Biosystems, Inc.) was used to analyze compound concentrations in plasma.
# PK studies of ChK1 inhibitors were conducted in rats after intravenous administration at 10 mg/kg. […]. […]
# [6] = in vivo; design: species or system Balb/c nude mice; conditions: mouse, iv, 40 mg/kg
# Method: (§2) Female Balb/c nude mice at 7-8 weeks of age (Body weights between 17-18g) were purchased from Hunan SJA Laboratory Animal Co., Ltd. HT-29 cells were cultured in DMEM culture medium containing 10% fetal bovine serum and LoVo cells were cultured in RPMI 1640 culture medium containing 10% fetal bovine serum. The cells were harvested and washed with serum free culture medium. Finally, the cells were suspended at a cell density of […] in serum free culture medium for implantation. 5 million cells per animal suspended in 0.1 ml serum free culture medium and 1.1 matrigel were injected into the right flank of the animals after a one, week acclimation period. When average tumor volume reached acceptable tumor size (100-200 mm^3) and shape, the animals were randomly assigned into treatment groups.
# Compound 3 was selected for further PK studies in tumor bearing mice. HT-29 colon cancer cells were implanted to establish the xenograft model in Balb/c nude mice. Twenty-four mice were divided into 8 time groups with n=3/group. Compound 3 was dissolved in 30% SEB-β-CD (Zhiyuan Bio-technology) with 1 molar equivalents of HCl. Each animal was dosed via intravenous administration of Compound 3 at 40 mg/kg. Blood and tumors were collected at various time points after mice were euthanized with CO2. Blood samples were centrifuged at 4° C. immediately after collection. The supernatants were transferred to 1.5 mL of Eppendorf vials as soon as possible and stored at −80° C. in a freezer. Tumor samples were collected and placed in dry ice until transferred to a −80° C. freezer for bioanalysis.
# [7] = test system: HT-29 colon cancer xenograft; format: in vivo
# Method: as §2
# HT-29 colon cancer cells were implanted to establish the xenograft model in Balb/c nude mice. Compound 3 and LY2606368 were dissolved in 30% SEB-β-CD (Zhiyuan Bio-technology) with 1 molar equivalents of HCl. GDC-575 was suspended in 0.5% methyl cellulose/0.1% Tween 80 in water. […]. The animals well tolerated each treatment in the HT-29 colon cancer in nude mice model.
# [8] = test system: HT-29 tumor xenograft; test: HT-29 xenograft model, alone or in combination with CPT-11; format: in vivo, Balb/c nude mice; conditions: for % T/C value: 40 mg/kg, IV
# Method: as §2
# In HT-29 tumor xenograft model, the animals were treated with a single compound, a ChK1 inhibitor or CPT-11, or a combination with CPT11. […] The animals well tolerated each treatment in the HT-29 colon cancer in nude mice model.
# [9] = test system: LoVo colon cancer xenograft; test: LoVo colon xenograft model; format: in vivo, Balb/c nude mice
# Method: as §2
# Lovo colon cancer cells were implanted to establish the xenograft model in Balb/c nude mice. Compound 3 and LY2606368 were dissolved in 30% SEB-β-CD (Zhiyuan Bio-technology) with 1 molar equivalents of HCl. […]
# [10] = Human liver S9 metabolic stability; format: in vitro ADME; conditions: for Percentage Remaining %: 1 μM, 37° C.
# Method: Compounds (1 μM) were incubated with human liver S9 (from BD Gentest) at final liver microsomal protein concentration of 0.5 mg/mL for 0, 5, 15, 30, 45 min at 37° C. The remaining compounds in the reaction were measured by LC-MS/MS. The half-life (T½) 0.693/K (K is the rate constant from a plot of ln [concentration] vs. incubation time).
# T1 sequence (O96017 whole entry): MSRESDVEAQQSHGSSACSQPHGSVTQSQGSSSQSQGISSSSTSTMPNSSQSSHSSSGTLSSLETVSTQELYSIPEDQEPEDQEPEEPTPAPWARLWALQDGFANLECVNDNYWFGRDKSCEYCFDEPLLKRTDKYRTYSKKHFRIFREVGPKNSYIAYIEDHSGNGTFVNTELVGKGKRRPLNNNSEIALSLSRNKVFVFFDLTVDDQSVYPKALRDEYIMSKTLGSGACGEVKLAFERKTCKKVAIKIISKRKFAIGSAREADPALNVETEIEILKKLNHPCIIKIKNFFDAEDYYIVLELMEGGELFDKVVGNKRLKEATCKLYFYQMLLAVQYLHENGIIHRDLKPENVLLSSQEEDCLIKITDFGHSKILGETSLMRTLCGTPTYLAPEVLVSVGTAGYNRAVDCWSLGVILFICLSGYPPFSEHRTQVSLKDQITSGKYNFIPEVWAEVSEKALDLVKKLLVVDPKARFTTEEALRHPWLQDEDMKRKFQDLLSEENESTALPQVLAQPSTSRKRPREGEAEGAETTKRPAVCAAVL
compound,measurement,setting,value
"COc1cc(F)cc(OCCCN)c1-c1cc(Nc2cnc(C#N)cn2)n[nH]1 [Compound 3, 5-(5-(2-(3-Aminopropoxy)-4-fluoro-6-methoxyphenyl)-1H-pyrazol-3-ylamino)pyrazine-2-carbonitrile]",IC50,[1],50 to 100 nM
same,IC50,[2],10 to 50 nM
same,IC50,[3],50 to 100 nM
same,inhibition of ChK1 phosphorylation (FIG. 2),[4],potently inhibited ChK1 phosphorylation
same,AUC(0-inf),"[5]; male, SD, 10 mg/kg",4640 ng·h/mL
same,AUC(0-t),"[5]; male, SD, 10 mg/kg",4530 ng·h/mL
same,MRT,"[5]; male, SD, 10 mg/kg",2.8 h
same,clearance,"[5]; male, SD, 10 mg/kg",38.3 mL/min/kg
same,half-life,"[5]; male, SD, 10 mg/kg",228 min
same,Vd,"[5]; male, SD, 10 mg/kg, Vd",12.3 L/kg
same,Vd,"[5]; male, SD, 10 mg/kg, Vss",6.4 L/kg
same,half-life and exposure compared with LY2606368,[5],longer half-life and higher exposure than LY2606368
same,Kp,"[6]; female, Balb/c nude",~6
same,half-life,"[6]; female, Balb/c nude, half-life in blood",366 min
same,half-life,"[6]; female, Balb/c nude, half-life in tumor tissues",840 min
same,distribution into tumor tissues,[6],rapidly distributed into tumor tissues
same,T/C value,"[7]; 40 mg/kg, iv, 2 times/week",31%
same,Tumor volume (X ± SD),"[7]; 40 mg/kg, iv, 2 times/week",407 ± 17 mm^3
same,Tumor weight (X ± SD),"[7]; 40 mg/kg, iv, 2 times/week",272 ± 16 mg
same,efficacy compared with references at their MTD,"[7]; mouse, in vivo",more efficacious than the reference LY-2606368
same,"efficacy compared with LY-2606368, alone or with CPT-11",[8]; 40 mg/kg IV twice a week vs LY-2606368 15 mg/kg IV twice a week,more efficacious than the reference LY-2606368
same,% T/C value,"[8]; twice a week plus CPT-11 (50 mg/kg, IV, once per week)",−9%
same,% T/C value,"[8]; alone, twice a week",26%
same,effect on anti-tumor growth activity of CPT11,[8]; combination with CPT11,enhanced anti-tumor growth activity of CPT11
same,T/C value,"[9]; 40 mg/kg, IV, twice a week",−77%
same,tumor growth inhibition,"[9]; LY2606368 15 mg/kg, Compound 3 10, 20, 40 mg/kg, IV, twice a week",significant tumor growth inhibition in a dose-dependent manner
same,efficacy compared with LY2606368 at MTD dose,[9]; MTD dose,more efficacious than LY2606368
same,Percentage Remaining %,[10]; 0 min,100.00%
same,Percentage Remaining %,[10]; 5 min,96.98%
same,Percentage Remaining %,[10]; 15 min,94.32%
same,Percentage Remaining %,[10]; 30 min,65.38%
same,Percentage Remaining %,[10]; 45 min,77.05%
same,metabolic stability compared with LY2606368,[10]; human liver S9,more metabolic stable than LY2606368
same,half-life at 1 μM,"[10]; human liver S9, 1 μM",165 min
